Results taken from PMC5740082, “Identification of a CARM1 Inhibitor with Potent In Vitro and In Vivo Activity in Preclinical Models of Multiple Myeloma” (Scientific Reports, 2017).

Experiments:
CARM1 = target: T1, CARM1 (Homo sapiens, UniProt Q86X55); experiment: CARM1 histone methyltransferase (biochemical) assay
T1 construct: FLAG-CARM1 (amino acids 2–585)-His for biochemical studies was expressed in 293 F mammalian cells; made in house; host or cells: 293F mammalian cells
T1 sequence (Q86X55 2-585 isoform Q86X55-1): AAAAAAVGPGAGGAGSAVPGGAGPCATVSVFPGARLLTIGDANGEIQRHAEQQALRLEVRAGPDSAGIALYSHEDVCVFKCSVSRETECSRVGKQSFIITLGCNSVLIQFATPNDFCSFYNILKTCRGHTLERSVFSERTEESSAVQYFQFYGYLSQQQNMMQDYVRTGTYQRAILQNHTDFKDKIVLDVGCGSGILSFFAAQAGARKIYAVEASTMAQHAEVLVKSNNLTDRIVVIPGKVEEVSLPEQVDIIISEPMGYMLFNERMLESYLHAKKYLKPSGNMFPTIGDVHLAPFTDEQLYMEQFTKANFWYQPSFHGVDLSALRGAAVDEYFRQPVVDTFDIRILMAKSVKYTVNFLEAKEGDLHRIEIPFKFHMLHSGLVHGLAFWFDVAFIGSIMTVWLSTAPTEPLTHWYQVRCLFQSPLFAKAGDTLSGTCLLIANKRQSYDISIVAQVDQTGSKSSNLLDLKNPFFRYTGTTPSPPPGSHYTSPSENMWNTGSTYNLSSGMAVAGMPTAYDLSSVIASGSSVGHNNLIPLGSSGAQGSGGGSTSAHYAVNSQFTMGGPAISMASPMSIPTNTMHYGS
Description: CARM1 activity was measured as previously reported for the histone methyltransferases PRMT1/6/8[65] and PRMT5[58]. Briefly, CARM1 was preincubated with compounds for 30 minutes at room temperature before reactions were initiated. […] The assays were quenched by the addition of 300 μM unlabeled SAM. The quantity of ^3H-labeled peptide produced was measured by Flashplate on a Topcount reader. Further details can be found in the Supplementary Methods.
Histone methyltransferase assay
The compounds were preincubated with CARM1 for 30 minutes at room temperature before the reactions were initiated by the addition of substrates. […]
containing 20 mM bicine, 1 mM tris(2-carbox yethyl)phosphine, 0.005% bovine skin gelatin and 0.002% Tween-20, pH 7.5 and 2% DMSO. The peptide sequence was biotin-aminohexanoate- […]
eKS AP-amide, where RMe is a monomethylated arginine residue (21st
Century Biochemicals, Marlboro, MA). After 2 hours, assa ys were quenched b y the addition of 300 μM unlabeled SAM. The reactions were tran sferred to a 384-well Flashplate (Perkin Elmer) and the biotinylated peptides were allowed to bind to the streptavidin surface for at least 1 hour before being washed once with 0.1% Tween 20. The quantit y of 3H-labeled peptide bound to the Flashplate surface was counted on a Topcount reader as counts per minute (cpm). % Inhibition values wer e calculated and IC50 values were fit using the 3 -param eter IC50 equation below:
YY = BBBBBBBBBBBB + (100 − BBBBBBBBBBBB )HHHHHHHH CCCCCCCCCCHHCCHHCCCCCC where top is fixed at 100 or the maximum inhibition plateau , Y is % inhibition and X is […]
IC50 vs [peptide] data were fit to the noncom petitive Cheng- Prusoff […]
The effect of reaction time on compound potency was determined b y meas uring IC50 values from […]
to a one phase exponential deca y equation. […]
activity was measured under standard conditions after a 30 minute preincubation.
IC 50 values were d etermi ned and data wer e anal yz ed using the following eq uation: […]

CYP1A2 = target: T2, CYP1A2 (Homo sapiens, UniProt P05177); experiment: Cytochrome P450 inhibition; assay type: in vitro ADME; settings: human liver microsomes, tested up to 25 µM
T2 construct: with human liver microsomes; from tissue; host or cells: human liver microsomes
T2 sequence (P05177 whole entry): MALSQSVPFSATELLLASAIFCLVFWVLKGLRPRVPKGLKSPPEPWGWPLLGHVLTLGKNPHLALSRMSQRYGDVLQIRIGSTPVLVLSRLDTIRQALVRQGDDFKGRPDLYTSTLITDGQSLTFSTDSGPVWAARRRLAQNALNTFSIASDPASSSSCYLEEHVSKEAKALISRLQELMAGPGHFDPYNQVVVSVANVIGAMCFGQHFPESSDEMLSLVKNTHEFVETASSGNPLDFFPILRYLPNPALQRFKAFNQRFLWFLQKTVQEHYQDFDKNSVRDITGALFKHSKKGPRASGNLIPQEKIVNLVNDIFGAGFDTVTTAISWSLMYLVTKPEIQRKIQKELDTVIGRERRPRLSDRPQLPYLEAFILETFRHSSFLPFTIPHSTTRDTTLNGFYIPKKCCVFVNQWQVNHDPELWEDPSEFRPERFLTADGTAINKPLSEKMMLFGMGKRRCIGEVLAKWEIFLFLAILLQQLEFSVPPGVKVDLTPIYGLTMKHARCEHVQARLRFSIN
Description: (§1) Hepatocyte stability, plasma protein binding and cytochrome P450 assays were performed using standard procedures. Details can be found in Supplementary Methods. […]
(§2) Cytochrome P450 Inhibition (IC50 Determination) […]
(§3) with human liver microsomes (0.1 to 1 mg/m L) and NADPH (1 mM) in the presence of specific probe substrates at 37°C. Probe substrates and incubation times were: phenacetin (30 µM, 5 min), tolbutamide (120 µM, 60 min), mephenytoi n (25 µM, 60 min) and dextromethorphan (5 µM, 5 min) for CYP1A2, CYP2C9, CYP2C19 and CYP2D6, respectivel y. For CYP3A4, midazolam (2.5 µM, 5 min) andtestosterone (50 µM, 5 min) were used as probe substrates. […]
(§4) isoform. All reactions were terminated b y addition of methanol prior to cent rifugation and addition of internal standard to the supernatants. For CYP2C9, CYP2C19, CYP2D6 and CYP3A4 (midazolam) incubations, the supernat ants were combined for the simultaneous anal ysis o f 4-h ydrox ytol butamide, 4- hydrox ymephenytoin, dextrorphan and 1-hydrox ymidazolam b y LC-MS/MS. For the CYP1A2 and CYP3A4 (testosterone) incubations, the supernatants were anal yzed individuall y for acetaminophen and 6ß-h ydrox ytestosterone b y LC -MS/MS. A decrease i n the formation of the metabolites compared to vehicle control was used to calculate an IC50 value.

CYP2C19 = target: T3, CYP2C19 (Homo sapiens, UniProt P33261); experiment: Cytochrome P450 inhibition; assay type: in vitro ADME; settings: human liver microsomes, tested up to 25 µM
T3 construct: with human liver microsomes; from tissue; host or cells: human liver microsomes
T3 sequence (P33261 whole entry): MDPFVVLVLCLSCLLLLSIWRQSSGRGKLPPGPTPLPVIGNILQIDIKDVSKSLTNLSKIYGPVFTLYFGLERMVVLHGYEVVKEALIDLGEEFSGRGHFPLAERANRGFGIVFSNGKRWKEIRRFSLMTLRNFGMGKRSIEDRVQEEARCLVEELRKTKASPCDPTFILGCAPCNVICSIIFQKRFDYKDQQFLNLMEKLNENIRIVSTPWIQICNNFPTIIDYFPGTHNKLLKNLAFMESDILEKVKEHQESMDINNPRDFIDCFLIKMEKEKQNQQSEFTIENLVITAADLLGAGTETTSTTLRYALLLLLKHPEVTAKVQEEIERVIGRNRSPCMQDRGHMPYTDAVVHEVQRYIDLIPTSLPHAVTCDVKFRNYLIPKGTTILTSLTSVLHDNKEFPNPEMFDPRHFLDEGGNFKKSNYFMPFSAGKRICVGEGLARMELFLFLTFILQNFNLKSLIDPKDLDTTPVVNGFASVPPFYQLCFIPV
Description: as §1, §2, §3, §4

CYP2C9 = target: T4, CYP2C9 (Homo sapiens, UniProt P11712); experiment: Cytochrome P450 inhibition; assay type: in vitro ADME; settings: human liver microsomes, tested up to 25 µM
T4 construct: with human liver microsomes; from tissue; host or cells: human liver microsomes
T4 sequence (P11712 whole entry): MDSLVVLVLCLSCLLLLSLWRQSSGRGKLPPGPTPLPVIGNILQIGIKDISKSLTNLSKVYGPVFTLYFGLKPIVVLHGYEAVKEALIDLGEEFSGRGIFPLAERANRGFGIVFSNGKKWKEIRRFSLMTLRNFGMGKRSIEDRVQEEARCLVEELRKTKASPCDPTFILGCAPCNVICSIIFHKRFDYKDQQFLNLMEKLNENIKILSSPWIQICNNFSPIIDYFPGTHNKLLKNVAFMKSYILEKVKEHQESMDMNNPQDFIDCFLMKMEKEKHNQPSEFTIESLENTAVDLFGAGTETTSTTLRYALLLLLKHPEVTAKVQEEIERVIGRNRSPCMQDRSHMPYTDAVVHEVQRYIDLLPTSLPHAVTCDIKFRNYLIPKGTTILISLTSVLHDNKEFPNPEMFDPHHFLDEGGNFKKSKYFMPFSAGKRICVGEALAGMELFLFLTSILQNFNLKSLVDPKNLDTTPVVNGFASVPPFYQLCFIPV
Description: as §1, §2, §3, §4

CYP2D6 = target: T5, CYP2D6 (Homo sapiens, UniProt P10635); experiment: Cytochrome P450 inhibition; assay type: in vitro ADME; settings: human liver microsomes, tested up to 25 µM
T5 construct: with human liver microsomes; from tissue; host or cells: human liver microsomes
T5 sequence (P10635 whole entry): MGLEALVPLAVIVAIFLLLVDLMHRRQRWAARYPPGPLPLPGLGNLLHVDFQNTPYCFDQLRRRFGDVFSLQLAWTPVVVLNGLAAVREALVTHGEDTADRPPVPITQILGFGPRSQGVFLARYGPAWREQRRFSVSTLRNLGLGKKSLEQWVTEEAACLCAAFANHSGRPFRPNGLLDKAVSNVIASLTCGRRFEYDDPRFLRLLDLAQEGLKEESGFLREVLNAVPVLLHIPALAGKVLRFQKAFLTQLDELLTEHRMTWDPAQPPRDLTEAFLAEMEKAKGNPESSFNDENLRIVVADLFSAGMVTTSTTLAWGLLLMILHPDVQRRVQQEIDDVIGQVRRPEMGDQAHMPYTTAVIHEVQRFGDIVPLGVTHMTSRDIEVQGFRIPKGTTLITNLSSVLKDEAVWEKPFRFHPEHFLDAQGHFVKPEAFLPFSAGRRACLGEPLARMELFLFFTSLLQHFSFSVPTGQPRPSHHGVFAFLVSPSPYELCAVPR
Description: as §1, §2, §3, §4

CYP3A4 = target: T6, CYP3A4 (Homo sapiens, UniProt P08684); experiment: Cytochrome P450 inhibition; assay type: in vitro ADME; settings: human liver microsomes, tested up to 25 µM
T6 construct: with human liver microsomes; from tissue; host or cells: human liver microsomes
T6 sequence (P08684 whole entry): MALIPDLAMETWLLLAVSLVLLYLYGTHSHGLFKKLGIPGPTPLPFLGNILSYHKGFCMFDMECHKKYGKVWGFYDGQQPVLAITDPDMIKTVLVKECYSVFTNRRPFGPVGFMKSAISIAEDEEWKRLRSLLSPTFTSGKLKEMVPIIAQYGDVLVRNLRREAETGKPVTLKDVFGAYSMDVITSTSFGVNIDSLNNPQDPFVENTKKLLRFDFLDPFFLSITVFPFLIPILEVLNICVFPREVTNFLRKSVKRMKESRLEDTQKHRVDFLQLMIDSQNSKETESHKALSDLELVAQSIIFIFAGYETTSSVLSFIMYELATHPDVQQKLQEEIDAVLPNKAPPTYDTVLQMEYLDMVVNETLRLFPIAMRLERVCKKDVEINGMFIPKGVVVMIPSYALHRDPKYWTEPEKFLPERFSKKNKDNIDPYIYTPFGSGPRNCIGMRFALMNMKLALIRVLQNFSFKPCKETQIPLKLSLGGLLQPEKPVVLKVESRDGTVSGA
Description: as §1, §2, §3, §4

[1] = test system: 40 protein kinases, lipid kinases and kinase mutants; experiment: KinaseProfiler screen (Millipore); assay type: biochemical; settings: 10 μM

## CNC[C@@H](O)COc1ccc(Cl)c(-c2nc(-c3c(C)noc3C)c(C)c(N3CC4(CCN(C(=O)OC)CC4)C3)n2)c1 [EZM2302]
CARM1; varying EZM2302 and SAH
  α value (dual inhibitor study with SAH): 0.2
CARM1; varying peptide concentrations
  α (noncompetitive fit, substrate competition): 0.2
CYP1A2
  CYP1A2 inhibition: did not inhibit
CYP2C19
  CYP2C19 inhibition: did not inhibit
CYP2C9
  CYP2C9 inhibition: did not inhibit
CYP2D6
  CYP2D6 inhibition: did not inhibit
CYP3A4
  CYP3A4 inhibition: did not inhibit
[1]
  inhibition of kinases: ≤ 30%
